Source: US7772241B2, “Variolin derivatives and their use as antitumor agents” (Pharma Mar S.A., priority 2001, dated 2010)
Read-outs that look alike come from different tables or passages of the source. Blank lines part the entries; values can stand above or below the compound they belong to.

Tests used:
LNCaP = assay: Inhibition of cells growth by colorimetric (SRB) assay, LNCaP; conditions: SRB assay, 48 hours exposure
Method in brief: (§1)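 Read-out is sulforhodamine B protein stain (OD 490 nm) after cold TCA fixation, following 48 h continuous exposure to samples spanning 10 to 10^−8 μg/ml.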

A-549 = assay: Inhibition of cells growth by colorimetric (SRB) assay, A-549; conditions: SRB assay, 48 hours exposure; for GI50: read-out: GI50 A-549
Method in brief: as §1

IGROV-ET = assay: Inhibition of cells growth by colorimetric (SRB) assay, IGROV-ET; conditions: SRB assay, 48 hours exposure
Method in brief: as §1

SK-OV-3 = assay: Inhibition of cells growth by colorimetric (SRB) assay, SK-OV-3; conditions: SRB assay, 48 hours exposure
Method in brief: as §1

LoVo = assay: Inhibition of cells growth by colorimetric (SRB) assay, LoVo; conditions: SRB assay, 48 hours exposure
Method in brief: as §1

HT-29 = assay: Inhibition of cells growth by colorimetric (SRB) assay, HT-29; conditions: SRB assay, 48 hours exposure
Method in brief: as §1

IGROV-1 = assay: Inhibition of cells growth by colorimetric (SRB) assay, IGROV-1; conditions: SRB assay, 48 hours exposure
Method in brief: as §1

K-562 = assay: Inhibition of cells growth by colorimetric (SRB) assay, K-562; conditions: SRB assay, 48 hours exposure
Method in brief: as §1

SK-MEL-28 = assay: Inhibition of cells growth by colorimetric (SRB) assay, SK-MEL-28; conditions: SRB assay, 48 hours exposure
Method in brief: as §1

PANC-1 = assay: Inhibition of cells growth by colorimetric (SRB) assay, PANC-1; conditions: SRB assay, 48 hours exposure
Method in brief: as §1

DU-145 = assay: Inhibition of cells growth by colorimetric (SRB) assay, DU-145; conditions: SRB assay, 48 hours exposure
Method in brief: as §1

SK-BR-3 = assay: Inhibition of cells growth by colorimetric (SRB) assay, SK-BR-3; conditions: SRB assay, 48 hours exposure
Source text: (§2) The finality of these assays is to interrupt the growth of a “in vitro” tumor cell culture by means a continued exhibition of the cells to the sample to be testing.
(§3) This form of the assay employs 96 well cell culture microplates of 9 mm diameter (Faircloth, 1988; Mosmann, 1983). Most of the cell lines are obtained from American Type Culture Collection (ATCC) derived from different human cancer types.
(§4) Cells are maintained in RPMI 1640 10% FBS, supplemented with 0.1 g/l penicillin and 0.1 g/l streptomycin sulphate and then incubated at 37° C., 5% CO2 and 98% humidity. For the experiments, cells were harvested from subconfluent cultures using trypsin and resuspended in fresh medium before plating.
(§5) Cells are seeded in 96 well microtiter plates, at 5×10^3 cells per well in aliquots of 195 μl medium, and they are allowed to attach to the plate surface by growing in drug free medium for 18 hours. Afterward, samples are added in aliquots of 5 μl in a ranging from 10 to 10^−8 μg/ml, dissolved in DMSO/EtOH/PBS (0.5:0.5:99). After 48 hours exposure, the antitumor effect are measured by the SRB methodology: cells are fixed by adding 50 μl of cold 50% (wt/vol) trichloroacetic acid (TCA) and incubating for 60 minutes at 4° C. Plates are washed with deionized water and dried. One hundred μl of SRB solution (0.4% wt/vol in 1% acetic acid) is added to each microtiter well and incubated for 10 minutes at room temperature. Unbound SRB is removed by washing with 1% acetic acid. Plates are air dried and bound stain is solubilized with Tris buffer. Optical densities are read on a automated spectrophotometric plate reader at a single wavelength of 490 nm.
(§6) The values for mean +/−SD of data from triplicate wells are calculated. Some parameters for cellular responses can be calculated: GI=growth inhibition, TGI=total growth inhibition (cytostatic effect) and LC=cell killing (cytotoxic effect).

LoVo-Dox = assay: Inhibition of cells growth by colorimetric (SRB) assay, LoVo-Dox; conditions: SRB assay, 48 hours exposure
Method in brief: as §1

HMEC1 = assay: Inhibition of cells growth by colorimetric (SRB) assay, HMEC1; conditions: SRB assay, 48 hours exposure; for TGI H-MEC-1: in M (unit assumed); for GI50: read-out: GI50 H-MEC-1; for CC50: read-out: LC50 H-MEC-1
Source text: as §2, §3, §4, §5, §6

Compound: Nc1nccc(-c2c3cc4ccccc4nc3n3c(N)nccc23)n1 [Compound 19a]
TGI LN-caP (LNCaP): 2.18E−06
GI50 (LNCaP; read-out: GI50 LN-caP): 0.736 µM
CC50 (LNCaP; read-out: LC50 LN-caP): 22.5 µM
TGI A-549 (A-549): 7.64E−06
GI50 (A-549): 3.24 µM
CC50 (A-549; read-out: LC50 A-549): 18 µM
TGI IGROV-ET (IGROV-ET): 4.98E−06
GI50 (IGROV-ET; read-out: GI50 IGROV-ET): 1.41 µM
CC50 (IGROV-ET; read-out: LC50 IGROV-ET): 14.5 µM
TGI SKOV-3 (SK-OV-3): 4.67E−06
GI50 (SK-OV-3; read-out: GI50 SKOV-3): 1.14 µM
CC50 (SK-OV-3; read-out: LC50 SKOV-3): 21.8 µM
TGI LOVO (LoVo): 2.74E−06
GI50 (LoVo; read-out: GI50 LOVO): 0.467 µM
CC50 (LoVo; read-out: LC50 LOVO): 11.1 µM
TGI HT-29 (HT-29): 3.05E−05
GI50 (HT-29; read-out: GI50 HT-29): 1.94 µM
TGI IGROV (IGROV-1): 9.56E−06
GI50 (IGROV-1; read-out: GI50 IGROV): 1.85 µM
TGI K-562 (K-562): 6.42E−06
GI50 (K-562; read-out: GI50 K-562): 1.78 µM
CC50 (K-562; read-out: LC50 K-562): 25 µM
TGI MEL-28 (SK-MEL-28): 5.16E−06
GI50 (SK-MEL-28; read-out: GI50 MEL-28): 1.46 µM
CC50 (SK-MEL-28; read-out: LC50 MEL-28): 13.1 µM
TGI PANC-1 (PANC-1): 1.41E−05
GI50 (PANC-1; read-out: GI50 PANC-1): 3.45 µM
TGI DU-145 (DU-145): 7.94E−07
GI50 (DU-145; read-out: GI50 DU-145): 0.00305 µM
CC50 (DU-145; read-out: LC50 DU-145): 3.79 µM
TGI SK-BR-3 (SK-BR-3): 1.68E−06
GI50 (SK-BR-3; read-out: GI50 SK-BR-3): 0.477 µM
CC50 (SK-BR-3; read-out: LC50 SK-BR-3): 8.58 µM
TGI LOVO-DOX (LoVo-Dox): 7.51E−06
GI50 (LoVo-Dox; read-out: GI50 LOVO-DOX): 1.03 µM
TGI H-MEC-1 (HMEC1): 6.72E−07
GI50 (HMEC1): 0.123 µM
CC50 (HMEC1): 3.82 µM

GI50 (A-549): 34.4 µM
GI50 (HT-29; read-out: HT-29 GI50): 34.4 µM
Compound: COc1cccc(-c2c3cccnc3n3c(N)nccc23)c1 [Compound 62]
A-549 TGI (A-549): 3.44E−05
CC50 (A-549; read-out: A-549 LC50): 34.4 µM
HT-29 TGI (HT-29): 3.44E−05
CC50 (HT-29; read-out: HT-29 LC50): 34.4 µM
TGI H-MEC-1 (HMEC1): 3.44E−05
GI50 (HMEC1): 34.4 µM
CC50 (HMEC1): 34.4 µM
